# Measurements: PMC9109478 (2022)
# Legend:
# [1] = test system: hRAS1 (DNA, G4) TCGGGTTGCGGGCGCAGGGCACGGGCG; assay: ESI-MS; conditions: K+ 1 mM; 100 mM TMAA, 50% methanol; 20 μM strand
# [2] = test system: NRAS (RNA, G4) UGUGGGAGGGGCGGGUCUGGG; assay: CD melting; conditions: K+ 100 mM; 10 mM Tris, pH 7.4; NRAS 5 μM; TPE-B : G4 1:1
# [3] = test system: ODN-51 (DNA, G4) TAGGGTTAGGGTTAGGGTTAGGG; assay: ESI-MS; conditions: K+ 1 mM; 100 mM TMAA, 50% methanol; 20 μM strand
# [4] = test system: hRAS1 (DNA, G4) TCGGGTTGCGGGCGCAGGGCACGGGCG; assay: CD melting; conditions: K+ 100 mM; 10 mM Tris, pH 7.4; G4 15 μM; TPE-B : G4 1:1
smiles,measurement,setting,value
CN(C)c1cc[n+](CCCCOc2ccc(C(=C(c3ccc(OCCCC[n+]4ccc(N(C)C)cc4)cc3)c3ccc(OCCCC[n+]4ccc(N(C)C)cc4)cc3)c3ccc(OCCCC[n+]4ccc(N(C)C)cc4)cc3)cc2)cc1,binding,[1],weak
same,ΔTm,[2],13.51 °C
same,binding,[3],weak
same,ΔTm,[4],0.07 °C
